PubChem BioAssay (NCI)
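Following 48 hours of exposure in 96-well plates, responses at five concentrations were used to interpolate endpoints linearly. At the TGI there is no net growth.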

Key:
Test in all cases: NCI tumour cell line growth inhibition, 48 h
786-0 renal = tested on: 786-0 renal
A549 NSCLC = tested on: A549 NSCLC
ACHN renal = tested on: ACHN renal
BT-549 breast = tested on: BT-549 breast
CAKI-1 renal = tested on: CAKI-1 renal
CCRF-CEM leukemia = tested on: CCRF-CEM leukemia
COLO 205 colon = tested on: COLO 205 colon
DU-145 prostate = tested on: DU-145 prostate
EKVX NSCLC = tested on: EKVX NSCLC
HCT-116 colon = tested on: HCT-116 colon
HCT-15 colon = tested on: HCT-15 colon
HL-60(TB) leukemia = tested on: HL-60(TB) leukemia
HOP-62 NSCLC = tested on: HOP-62 NSCLC
HOP-92 NSCLC = tested on: HOP-92 NSCLC
HS 578T breast = tested on: HS 578T breast
HT29 colon = tested on: HT29 colon
IGROV1 ovarian = tested on: IGROV1 ovarian
K-562 leukemia = tested on: K-562 leukemia
KM12 colon = tested on: KM12 colon
LOX IMVI melanoma = tested on: LOX IMVI melanoma
M14 melanoma = tested on: M14 melanoma
MALME-3M melanoma = tested on: MALME-3M melanoma
MCF7 breast = tested on: MCF7 breast
MDA-MB-231 breast = tested on: MDA-MB-231 breast
MDA-MB-435 = tested on: MDA-MB-435
MOLT-4 leukemia = tested on: MOLT-4 leukemia
NCI-H226 lung = tested on: NCI-H226 lung
NCI-H23 lung = tested on: NCI-H23 lung
NCI-H460 lung = tested on: NCI-H460 lung
NCI-H522 lung = tested on: NCI-H522 lung
NCI/ADR-RES ovarian = tested on: NCI/ADR-RES ovarian
OVCAR-3 ovarian = tested on: OVCAR-3 ovarian
OVCAR-4 ovarian = tested on: OVCAR-4 ovarian
OVCAR-5 ovarian = tested on: OVCAR-5 ovarian
OVCAR-8 ovarian = tested on: OVCAR-8 ovarian
PC-3 prostate = tested on: PC-3 prostate
RPMI-8226 leukemia = tested on: RPMI-8226 leukemia
RXF 393 renal = tested on: RXF 393 renal
SF-268 CNS = tested on: SF-268 CNS
SF-295 CNS = tested on: SF-295 CNS
SF-539 CNS = tested on: SF-539 CNS
SK-MEL-2 melanoma = tested on: SK-MEL-2 melanoma
SK-MEL-28 melanoma = tested on: SK-MEL-28 melanoma
SK-MEL-5 melanoma = tested on: SK-MEL-5 melanoma
SK-OV-3 ovarian = tested on: SK-OV-3 ovarian
SN12C renal = tested on: SN12C renal
SNB-19 CNS = tested on: SNB-19 CNS
SNB-75 CNS = tested on: SNB-75 CNS
SR leukemia = tested on: SR leukemia
SW-620 colon = tested on: SW-620 colon
T-47D breast = tested on: T-47D breast
TK-10 renal = tested on: TK-10 renal
U251 CNS = tested on: U251 CNS
UACC-257 melanoma = tested on: UACC-257 melanoma
UACC-62 melanoma = tested on: UACC-62 melanoma
UO-31 renal = tested on: UO-31 renal
A498 renal = tested on: A498 renal
HCC-2998 colon = tested on: HCC-2998 colon

## O=S(=O)(Nc1ccc2ccc3cccc4ccc1c2c34)c1ccccc1
786-0 renal
  TGI: > 100 µM
A549 NSCLC
  TGI: > 100 µM
ACHN renal
  TGI: > 100 µM
BT-549 breast
  TGI: > 100 µM
CAKI-1 renal
  TGI: > 100 µM
CCRF-CEM leukemia
  TGI: 53 µM
COLO 205 colon
  TGI: > 100 µM
DU-145 prostate
  TGI: > 100 µM
EKVX NSCLC
  TGI: > 100 µM
HCT-116 colon
  TGI: > 100 µM
HCT-15 colon
  TGI: > 100 µM
HL-60(TB) leukemia
  TGI: > 100 µM
HOP-62 NSCLC
  TGI: > 100 µM
HOP-92 NSCLC
  TGI: 98.3 µM
HS 578T breast
  TGI: > 100 µM
HT29 colon
  TGI: > 100 µM
IGROV1 ovarian
  TGI: > 100 µM
K-562 leukemia
  TGI: > 100 µM
KM12 colon
  TGI: > 100 µM
LOX IMVI melanoma
  TGI: > 100 µM
M14 melanoma
  TGI: > 100 µM
MALME-3M melanoma
  TGI: > 100 µM
MCF7 breast
  TGI: > 100 µM
MDA-MB-231 breast
  TGI: > 100 µM
MDA-MB-435
  TGI: 24.4 µM
MOLT-4 leukemia
  TGI: > 100 µM
NCI-H226 lung
  TGI: > 100 µM
NCI-H23 lung
  TGI: > 100 µM
NCI-H460 lung
  TGI: > 100 µM
NCI-H522 lung
  TGI: > 100 µM
NCI/ADR-RES ovarian
  TGI: > 100 µM
OVCAR-3 ovarian
  TGI: 48.9 µM
OVCAR-4 ovarian
  TGI: > 100 µM
OVCAR-5 ovarian
  TGI: > 100 µM
OVCAR-8 ovarian
  TGI: > 100 µM
PC-3 prostate
  TGI: > 100 µM
RPMI-8226 leukemia
  TGI: 32.5 µM
RXF 393 renal
  TGI: > 100 µM
SF-268 CNS
  TGI: > 100 µM
SF-295 CNS
  TGI: > 100 µM
SF-539 CNS
  TGI: > 100 µM
SK-MEL-2 melanoma
  TGI: > 100 µM
SK-MEL-28 melanoma
  TGI: > 100 µM
SK-MEL-5 melanoma
  TGI: > 100 µM
SK-OV-3 ovarian
  TGI: > 100 µM
SN12C renal
  TGI: 65.4 µM
SNB-19 CNS
  TGI: > 100 µM
SNB-75 CNS
  TGI: > 100 µM
SR leukemia
  TGI: > 100 µM
SW-620 colon
  TGI: > 100 µM
T-47D breast
  TGI: > 100 µM
TK-10 renal
  TGI: > 100 µM
U251 CNS
  TGI: > 100 µM
UACC-257 melanoma
  TGI: > 100 µM
UACC-62 melanoma
  TGI: > 100 µM
UO-31 renal
  TGI: > 100 µM

## CN(C)c1ccc(C=Nc2ccc(-c3nc4ccccc4o3)cc2)cc1
786-0 renal
  TGI: > 100 µM
A498 renal
  TGI: > 100 µM
A549 NSCLC
  TGI: > 100 µM
ACHN renal
  TGI: > 100 µM
BT-549 breast
  TGI: > 100 µM
COLO 205 colon
  TGI: > 100 µM
DU-145 prostate
  TGI: > 100 µM
EKVX NSCLC
  TGI: 87.1 µM
HCC-2998 colon
  TGI: 47.3 µM
HCT-116 colon
  TGI: > 100 µM
HCT-15 colon
  TGI: > 100 µM
HL-60(TB) leukemia
  TGI: 69.1 µM
HOP-62 NSCLC
  TGI: > 100 µM
HOP-92 NSCLC
  TGI: > 100 µM
HS 578T breast
  TGI: > 100 µM
HT29 colon
  TGI: > 100 µM
IGROV1 ovarian
  TGI: > 100 µM
K-562 leukemia
  TGI: > 100 µM
KM12 colon
  TGI: > 100 µM
LOX IMVI melanoma
  TGI: > 100 µM
M14 melanoma
  TGI: > 100 µM
MALME-3M melanoma
  TGI: > 100 µM
MCF7 breast
  TGI: > 100 µM
MDA-MB-231 breast
  TGI: > 100 µM
MDA-MB-435
  TGI: > 100 µM
MOLT-4 leukemia
  TGI: 78.8 µM
NCI-H23 lung
  TGI: > 100 µM
NCI-H460 lung
  TGI: 98.7 µM
NCI-H522 lung
  TGI: > 100 µM
NCI/ADR-RES ovarian
  TGI: > 100 µM
OVCAR-3 ovarian
  TGI: 51.4 µM
OVCAR-4 ovarian
  TGI: > 100 µM
OVCAR-5 ovarian
  TGI: > 100 µM
OVCAR-8 ovarian
  TGI: > 100 µM
PC-3 prostate
  TGI: 97.9 µM
SF-268 CNS
  TGI: > 100 µM
SF-539 CNS
  TGI: > 100 µM
SK-MEL-2 melanoma
  TGI: 83.1 µM
SK-MEL-28 melanoma
  TGI: > 100 µM
SK-MEL-5 melanoma
  TGI: 29.8 µM
SK-OV-3 ovarian
  TGI: > 100 µM
SN12C renal
  TGI: > 100 µM
SNB-19 CNS
  TGI: > 100 µM
SNB-75 CNS
  TGI: > 100 µM
SR leukemia
  TGI: > 100 µM
SW-620 colon
  TGI: > 100 µM
T-47D breast
  TGI: 58.3 µM
TK-10 renal
  TGI: > 100 µM
U251 CNS
  TGI: > 100 µM
UACC-257 melanoma
  TGI: 72.5 µM
UACC-62 melanoma
  TGI: > 100 µM
UO-31 renal
  TGI: > 100 µM
